Results reported in patent US20070129438A1 (priority 2002, published 2007).

Target: abnormal prion protein (Ovis aries, UniProt P23907)
Format: biochemical, sheep

Sequence of abnormal prion protein (P23907 25-233 limits assumed): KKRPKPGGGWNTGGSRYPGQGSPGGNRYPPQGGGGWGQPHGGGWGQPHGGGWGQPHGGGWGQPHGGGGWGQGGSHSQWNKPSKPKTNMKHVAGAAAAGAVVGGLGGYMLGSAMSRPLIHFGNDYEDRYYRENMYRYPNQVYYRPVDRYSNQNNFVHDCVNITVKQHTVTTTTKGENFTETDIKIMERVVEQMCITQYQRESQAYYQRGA

CC(C)C[C@H](N)C(=O)O [leucine]
suppression of proliferation of abnormal prion protein in vitro (leucine 15 mg/mL, PMCA): effectively suppressed proliferation of abnormal prion protein | bands of PK resistant fragments after PMCA (Western blotting) (leucine final concentration 15 mg/mL, up to 10 cycles of incubation-sonication, PK 50 μg/mL): no prominent bands were formed
